Reference: the NIST ThermoML archive (doi:10.1016/j.jct.2015.09.036)

Legend:
[1] = 303.15 K, 100 kPa, Liquid; for viscosity: Capillary tube (Ostwald / Ubbelohde) method; for speed of sound: Frequency=2 MHz, Linear variable-path acoustic interferometer; for mass density: Pycnometric method
[2] = xn = mol fraction of the nth substance listed; details: 303.15 K, 100 kPa, Liquid; for viscosity: Capillary tube (Ostwald / Ubbelohde) method; for speed of sound: Frequency=2 MHz, Linear variable-path acoustic interferometer; for mass density: Pycnometric method

CCCCC(CC)COP(=O)(O)OCC(CC)CCCC (configuration not stated) [bis(2-ethylhexyl) hydrogen phosphate]
[1]
Details	mass density [kg/m3]	speed of sound [m/s]	viscosity [mPa·s]
–	961.3	1293	19.29

O=[N+]([O-])c1ccccc1 [nitrobenzene] + CCCCC(CC)COP(=O)(O)OCC(CC)CCCC
[2], x2 = 0
Details	mass density [kg/m3]	speed of sound [m/s]	viscosity [mPa·s]
–	1193.6	1445.6	1.611

O=[N+]([O-])c1ccccc1 [nitrobenzene]
[1]
Details	mass density [kg/m3]	speed of sound [m/s]	viscosity [mPa·s]
–	1193.6	1445.6	1.611

Cc1ccccc1 [toluene] + CCCCC(CC)COP(=O)(O)OCC(CC)CCCC
[2], x2 = 0
Details	mass density [kg/m3]	speed of sound [m/s]	viscosity [mPa·s]
–	856.2	1282.6	0.528

CCCCC(CC)COP(=O)(O)OCC(CC)CCCC (configuration not stated) [bis(2-ethylhexyl) hydrogen phosphate] + Cc1ccccc1
[2]
Details	mass density [kg/m3]	speed of sound [m/s]	viscosity [mPa·s]
x1 = 0.0896	884.9	1283.7	0.722
x1 = 0.1624	902.1	1284.5	0.907
x1 = 0.2077	910.5	1285.1	1.086
x1 = 0.2898	923.1	1286	1.576
x1 = 0.3279	928.8	1286.6	1.914
x1 = 0.4205	937.6	1287.4	3.098
x1 = 0.5082	944.5	1288.2	4.679
x1 = 0.5903	949.3	1289	6.432
x1 = 0.6814	953.3	1289.9	8.931
x1 = 0.7388	955.2	1290.5	10.84
x1 = 0.8105	957.1	1291.2	13.17
x1 = 0.8876	958.8	1291.9	15.68
x1 = 0.9427	960.1	1292.5	17.43
x1 = 1	961.3	1293	19.29

CCCCC(CC)COP(=O)(O)OCC(CC)CCCC (configuration not stated) [bis(2-ethylhexyl) hydrogen phosphate] + Clc1ccccc1
[2]
Details	mass density [kg/m3]	speed of sound [m/s]	viscosity [mPa·s]
x1 = 0.0568	1075.2	1253.2	0.917
x1 = 0.1474	1051.9	1255.5	1.535
x1 = 0.2143	1038.4	1257.7	1.859
x1 = 0.3498	1017.9	1262.8	2.804
x1 = 0.4357	1007.6	1266.4	3.777
x1 = 0.4788	1002.9	1268.4	4.502
x1 = 0.5322	997.1	1270.8	5.526
x1 = 0.6285	987.8	1275.4	7.879
x1 = 0.7146	980.4	1279.5	10.49
x1 = 0.7704	975.8	1282.2	12.21
x1 = 0.8433	970.4	1285.7	14.56
x1 = 0.8789	968	1287.3	15.86
x1 = 0.9501	963.8	1290.8	17.84
x1 = 1	961.3	1293	19.29

Clc1ccccc1 [chlorobenzene] + CCCCC(CC)COP(=O)(O)OCC(CC)CCCC
[2], x2 = 0
Details	mass density [kg/m3]	speed of sound [m/s]	viscosity [mPa·s]
–	1095.2	1251.8	0.724

Clc1ccccc1 [chlorobenzene]
[1]
Details	mass density [kg/m3]	speed of sound [m/s]	viscosity [mPa·s]
–	1095.2	1251.8	0.724

Cc1ccccc1 [toluene]
[1]
Details	mass density [kg/m3]	speed of sound [m/s]	viscosity [mPa·s]
–	856.2	1282.6	0.528

CCCCC(CC)COP(=O)(O)OCC(CC)CCCC (configuration not stated) [bis(2-ethylhexyl) hydrogen phosphate] + O=[N+]([O-])c1ccccc1
[2]
Details	mass density [kg/m3]	speed of sound [m/s]	viscosity [mPa·s]
x1 = 0.0912	1139	1429.5	2.409
x1 = 0.1743	1104.1	1415.6	2.925
x1 = 0.2624	1075.4	1401.5	3.319
x1 = 0.3698	1048.6	1385.2	4.274
x1 = 0.4211	1038.1	1377.5	4.689
x1 = 0.4779	1027.1	1369.1	5.585
x1 = 0.5326	1017.4	1361.1	6.687
x1 = 0.6102	1004.6	1349.8	8.662
x1 = 0.6933	992.8	1337.6	10.95
x1 = 0.7299	988.1	1332.2	11.91
x1 = 0.7867	981.4	1323.9	13.51
x1 = 0.8598	973.6	1313.2	15.51
x1 = 0.9387	966.2	1301.9	17.75
x1 = 1	961.3	1293	19.29
